Measurements as given in paper PMC9184620, “TAS1553, a small molecule subunit interaction inhibitor of ribonucleotide reductase, exhibits antitumor activity by causing DNA replication stress” (Communications Biology, 2022).

Key:
[1] = target: T1, RNR (R1 and R2 recombinant proteins) (Homo sapiens, UniProt P23921); assay: RNR assay (formation of dCDP from CDP); type: biochemical; details: CDP to dCDP; mean ± SD; read-out: Enzyme IC50
T1 construct: made in house; host or cells: Escherichia coli
T1 sequence (P23921 1-792): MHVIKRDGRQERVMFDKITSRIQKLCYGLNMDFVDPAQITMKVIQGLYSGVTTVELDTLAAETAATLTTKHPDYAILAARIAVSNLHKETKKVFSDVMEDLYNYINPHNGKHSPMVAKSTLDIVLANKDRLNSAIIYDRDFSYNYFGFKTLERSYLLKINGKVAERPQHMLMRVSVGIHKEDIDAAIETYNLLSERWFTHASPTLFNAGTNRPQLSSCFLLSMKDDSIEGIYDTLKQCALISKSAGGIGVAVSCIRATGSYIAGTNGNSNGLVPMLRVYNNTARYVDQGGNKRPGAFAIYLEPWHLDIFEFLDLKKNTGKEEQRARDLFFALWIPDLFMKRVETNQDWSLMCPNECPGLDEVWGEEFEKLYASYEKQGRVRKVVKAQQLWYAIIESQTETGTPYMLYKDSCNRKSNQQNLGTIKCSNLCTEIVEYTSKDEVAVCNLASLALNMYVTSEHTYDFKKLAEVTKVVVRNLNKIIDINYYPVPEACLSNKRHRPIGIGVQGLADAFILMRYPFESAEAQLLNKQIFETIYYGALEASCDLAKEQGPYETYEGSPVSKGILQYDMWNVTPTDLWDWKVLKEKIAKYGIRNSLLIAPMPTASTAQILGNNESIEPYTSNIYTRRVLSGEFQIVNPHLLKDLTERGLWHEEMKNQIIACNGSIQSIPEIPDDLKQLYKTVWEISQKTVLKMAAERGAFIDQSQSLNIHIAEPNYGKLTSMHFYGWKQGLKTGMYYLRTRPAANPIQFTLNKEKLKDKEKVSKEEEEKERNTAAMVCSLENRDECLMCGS
Experimental: The binding affinity of TAS1553 to the R1 subunit was investigated using surface plasmon resonance (SPR) binding analysis. […] Next, we evaluated the inhibitory effect of TAS1553 against the enzymatic activity of RNR, consisting of R1 and R2 recombinant proteins. RNR activity was determined by its ability to reduce cytidine diphosphate (CDP) to deoxycytidine diphosphate (dCDP), based on a previous report. […] In addition to the inhibitory effect on RNR, TAS1553 was evaluated in a Eurofins LeadProfilingScreen panel assay including 68 proteins, such as ion channels, transporters, nuclear receptors, and G protein-coupled receptors, to examine its potential adverse activity.
The inhibition of RNR activity by the test compound was evaluated by measuring the formation of dCDP from CDP, as reported previously. The assay was performed for 30 min at 37 °C in a reaction mixture composed of 50 mmol/L HEPES, 4 mmol/L magnesium acetate, 100 mmol/L KCl, 6 mmol/L DTT, 2 mmol/L ATP, 0.24 mmol/L NADPH, 10.0 µmol/L CDP, 0.1 mg/mL BSA, 8.0 µg/mL His-R1, 2.4 µg/mL His-R2, and 1% DMSO with or without test compound. The reaction was discontinued by heat treatment at 95 °C for 5 min. The amount of dCDP after the reaction was quantified by a prominence HPLC system and LabSolutions software (SHIMADZU CORPORATION). Separations were performed at 265 nm in a Shim-pack XR-ODS column of particle size 2.2 μm (100 × 3.0 mm, SHIMADZU GLC Ltd.). Overall, 5 µL of each sample was injected, and chromatography was performed at 40 °C. Mobile A was composed of 10 mmol/L potassium dihydrogenphosphate, 10 mmol/L tetrabutylammonium hydroxide, 0.25% methanol and 8 mmol/L HCl. Mobile B was composed of 50 mmol/L potassium dihydrogenphosphate, 5.6 mmol/L tetrabutylammonium hydroxide, and 30% methanol. The gradient was as follows: 52–60% B for 9 min, 60–99% B for 1 min, 99% B for 5 min, 99–52% B for 1 min, and 52% B for 5 min. The flow rate was 0.5 mL/min. The experiment was performed in triplicates. IC50 values were calculated using the SAS software package.

MV-4-11 xenograft tumors = assay: Intratumoral dATP and ATP pool in MV-4-11 xenograft tumors after single oral dose; type: in vivo, rat; details: 1 and 2 h post-administration, 50 mg/kg and 200 mg/kg single oral dose
Experimental: To determine whether TAS1553 achieved RNR inhibition in an in vivo model, we examined the effect of a single dose of orally administered TAS1553 on intratumoral dATP pool, DNA replication stress, and apoptosis in rats that were subcutaneously implanted with a xenograft of MV-4-11 cell line. […] The decline in the intratumoral dATP pool recovered 4 h after the administration of both doses. We also evaluated the DNA replication stress and apoptosis induction in tumors following TAS1553 administration. Consistent with the modulation of the dATP pool, the single administration of TAS1553 (50 mg/kg or more) caused the phosphorylation of Chk1 at Ser345 1 and 2 h post-administration. Furthermore, TAS1553 administration also led to induction in cleaved PARP and cleaved caspase-3 levels, following to Chk1 phosphorylation (Fig. 4d).
Cells were plated, cultured for 1 day, treated with the compound, and harvested. The collected cells were homogenized with 0.42 mol/L perchloric acid, including IS-dATP at 0.6 μmol/L and IS-ATP at 2.4 μmol/L as internal standards for dATP and ATP, respectively. At each time point, xenograft tumors were excised after single dosing of the test compound. The tissues were homogenized with 0.42 mol/L perchloric acid, including IS-dATP at 3 μmol/L as an internal standard for dATP and ATP. […] The aqueous layer collected after vortex and centrifugation was analyzed by LC-MS/MS. […]

Compound: Cc1ccc(F)c([C@@H](C)[C@H](NS(=O)(=O)c2ccc(Cl)cc2C(N)=O)c2n[nH]c(=O)o2)c1C [TAS1553, 5-chloro-2-{N-[(1S,2R)-2-(6-fluoro-2,3-dimethylphenyl)-1-(5-oxo-4,5-dihydro-1,3,4-oxadiazol-2-yl)propyl]sulfamoyl}benzamide]
- IC50 [1]: 54.2 ± 6.1 nM
- effect on intratumoral dATP pool (MV-4-11 xenograft tumors): significant reduction
